Assay results published in patent publication US8263749B2, “Imatinib immunoassay” (Saladax Biomedical Inc., priority 2009, dated 2012).

What was measured:
Type in all cases: binding, mouse
[1] = test system: antibodies to imatinib; assay: Immunoassay reactivity of the antibodies produced in accordance with the invention (polyclonal and monoclonal); conditions: summary of Tables I and II
Method: Initial doses, bleedings and booster shots can be given according to accepted protocols for eliciting immune responses in animals, e.g., in a preferred embodiment mice received an initial dose of 100 ug immunogen/mouse, i.p. and two or more subsequent booster shots of between 50 and 100 ug immunogen/mouse over a six month period.
The ELISA method for determining IC50 values and cross-reactivity was performed with the microtiter plates that were sensitized with imatinib-BSA described in Examples 9. Analytes—imatinib and N-desmethyl imatinib were diluted in diH2O over a concentration range of 10 to 1,000,000 ng/mL. […] The assays were all performed by diluting the concentration of the antibodies in each of the wells to the titer determined in Example 10a. […] Following the incubation for color development, 50 of stop solution (1.5% sodium fluoride in di H2O) was added to each well to stop the color development and after 20 seconds of shaking the absorbance was determined at 650 nm (Molecular Devices Plate Reader). The amount of antibody in a well was proportional to the absorbance measured and inversely proportional to the amount of imatinib in the sample. The IC50's of imatinib and N-desmethyl imatinib were determined by constructing dose-response curves with the absorbance in the wells plotted versus analyte concentration in the wells. […]

[2] = test system: selected monoclonal antibodies to imatinib (Example 8b); assay: Indirect competitive microtiter plate immunoassay (ELISA), cross-reactivity with selected monoclonal antibodies; conditions: measured with selected monoclonal antibodies
Method: Mice from example 8a that were immunized with imatinib-KLH prepared in 6b were used to produce monoclonal antibodies. For monoclonal antibodies starting three days before the fusion, the mice were injected i.p. with 400 μg (3 days before fusion), 200 μg (2 days before fusion), and 200 μg (1 day before fusion) of imatinib-KLH in PSS/DMSO prepared in example 6b. Spleen cells were isolated from the selected mice and fused with 2×10^7 SP2/0 cells with 50% polyethylene glycol 1500 according to the method of Coligan, J. E. et al., eds., Current Protocols in Immunology, 2.5.1-2.5.8, (1992), Wiley & Sons, NY. The fused cells were plated on ten 96-well plates in DMEM/F12 supplemented with 20% FetalClone I, 2% L-glutamine (100 mM) and 2% 50× HAT. Two to three weeks later, the hybridoma supernatant was assayed for the presence of anti-imatinib antibodies by ELISA (as in example fob). Cells from the wells that gave positive ELISA results (example lob) were expanded to 24 well plates. Clones positive by ELISA were subcloned twice by limiting dilution according to the method disclosed in Coligan, J. E. et al., eds., Current Protocols in Immunology, 2.5.8-2.5.17, (1992), Wiley & Sons, NY. Hybridoma culture supernatants containing monoclonal antibody from selected subclones were confirmed for imatinib binding by a competitive ELISA (example 11). […]

[3] = test system: monoclonal antibody 9F2-4-31 to imatinib; assay: Indirect competitive microtiter plate immunoassay (ELISA), cross-reactivity with monoclonal antibody 9F2-4-31; conditions: monoclonal antibody number 9F2-4-31; ratio of IC50 imatinib to IC50 analyte
Method: (§1) Mice from example 8a that were immunized with imatinib-KLH prepared in 6b were used to produce monoclonal antibodies. For monoclonal antibodies starting three days before the fusion, the mice were injected i.p. with 400 μg (3 days before fusion), 200 μg (2 days before fusion), and 200 μg (1 day before fusion) of imatinib-KLH in PSS/DMSO prepared in example 6b. Spleen cells were isolated from the selected mice and fused with 2×10^7 SP2/0 cells with 50% polyethylene glycol 1500 according to the method of Coligan, J. E. et al., eds., Current Protocols in Immunology, 2.5.1-2.5.8, (1992), Wiley & Sons, NY. The fused cells were plated on ten 96-well plates in DMEM/F12 supplemented with 20% FetalClone I, 2% L-glutamine (100 mM) and 2% 50× HAT. Two to three weeks later, the hybridoma supernatant was assayed for the presence of anti-imatinib antibodies by ELISA (as in example fob). […] Clones positive by ELISA were subcloned twice by limiting dilution according to the method disclosed in Coligan, J. E. et al., eds., Current Protocols in Immunology, 2.5.8-2.5.17, (1992), Wiley & Sons, NY. […] These monoclonal antibodies were tested for imatinib binding and cross-reactivity to a major imatinib metabolite, N-desmethyl imatinib, by indirect competitive microtiter plate assay as described in example 11. […]

[4] = test system: polyclonal antibodies to imatinib (Example 8a); assay: Indirect competitive microtiter plate immunoassay (ELISA), cross-reactivity with polyclonal antibodies to imatinib; conditions: for Cross-reactivity of competitive immunoassay: ratio of IC50 imatinib to IC50 analyte
[5] = test system: monoclonal antibody 9F2-4-29 to imatinib; assay: Indirect competitive microtiter plate immunoassay (ELISA), cross-reactivity with monoclonal antibody 9F2-4-29; conditions: monoclonal antibody number 9F2-4-29; ratio of IC50 imatinib to IC50 analyte
Method: as §1

[6] = polyclonal Bleed # 1, immunogen of example 6b
[7] = polyclonal Bleed # 2, immunogen of example 6b
[8] = polyclonal Bleed # 3, immunogen of example 6b
[9] = polyclonal Bleed # 4, immunogen of example 6a
[10] = polyclonal Bleed # 5, immunogen of example 6a

## Cc1ccc(NC(=O)c2ccc(CN3CCNCC3)cc2)cc1Nc1nccc(-c2cccnc2)n1 [N-desmethyl imatinib]
[1]
  reactivity with the antibodies: substantially non-reactive
[2]
  percent cross-reactivities relative to imatinib: less than 4%
[3]
  Cross-reactivity of competitive immunoassay: 3.2%
[4]; measured with this pool of (polyclonal) antibodies
  percent cross-reactivities relative to imatinib: less than or equal to 7%
[4]; [6]
  Cross-reactivity of competitive immunoassay: 1%
[4]; [7]
  Cross-reactivity of competitive immunoassay: 5%
[4]; [8]
  Cross-reactivity of competitive immunoassay: 2%
[4]; [9]
  Cross-reactivity of competitive immunoassay: 7%
[4]; [10]
  Cross-reactivity of competitive immunoassay: 1%
[5]
  Cross-reactivity of competitive immunoassay: 2.7%

## Cc1ccc(NC(=O)c2ccc(CN3CCN(C)CC3)cc2)cc1Nc1nccc(-c2cccnc2)n1 [Imatinib]
[3]
  Cross-reactivity of competitive immunoassay: 100%
[4]; [6]
  Cross-reactivity of competitive immunoassay: 100%
[4]; [7]
  Cross-reactivity of competitive immunoassay: 100%
[4]; [8]
  Cross-reactivity of competitive immunoassay: 100%
[4]; [9]
  Cross-reactivity of competitive immunoassay: 100%
[4]; [10]
  Cross-reactivity of competitive immunoassay: 100%
[5]
  Cross-reactivity of competitive immunoassay: 100%
